Data published in patent US20160108027A1, “SUBSTITUTED BENZOXAZOLES” (BAYER PHARMA AKTIENGESELLSCHAFT, priority 2013, published 2016).

Legend:
thrombin [1] = target: T1, thrombin (Homo sapiens, UniProt P00734); assay: Determination of the thrombin-inhibitory activity in plasma samples (ecarin-activated); format: biochemical; conditions: citrate plasma, ecarin activation, fluorogenic thrombin substrate; in some cases means of individual determinations
Description: To determine the inhibition of thrombin in plasma samples, plasma […] is activated by ecarin. Thrombin activity and/or its inhibition by potential inhibitors is/are then measured fluorenscently by addition of a substrate.
The substances to be tested are dissolved in various concentrations in dimethyl sulphoxide and diluted with water. In white 96-well flat-bottomed plates, 20 μl of substance dilution are mixed with 20 μl of ecarin solution (ecarin reagent, from Sigma E-0504, final concentration 20 mU per reaction) in Ca buffer (200 mM Hepes+560 mM sodium chloride+10 mM calcium chloride+0.4% PEG) or with 20 μl of Ca buffer (as unstimulated control). Furthermore, 20 μl of fluorogenic thrombin substrate (from Bachem 1-1120, final concentration 50 μmol/1) and 20 μl of citrate plasma (from Octapharma) are added, and the mixture is homogenized well. The plate is measured in a SpectraFluorplus Reader using a 360 nm excitation filter and a 465 nm emission filter every minute over 20 minutes. […] Representative activity data from this test are given in Table 2 below (in some cases as means of individual determinations): […]

thrombin [2] = target: T1, thrombin; assay: Measurement of the thrombin inhibition in buffer; format: biochemical; conditions: human thrombin 0.06 nmol/l in Tris buffer pH 7.4, 22° C., substrate Boc-Asp(OBzl)-Pro-Arg-AMC; in some cases means of individual determinations
Description: To determine the thrombin inhibition of the substances listed above, a biochemical test system is constructed in which the conversion of a thrombin substrate is used for determining the enzymatic activity of human thrombin. Here, thrombin cleaves aminomethylcoumarin, which is measured fluorescently, from the peptic substrate. The determinations are carried out in microtitre plates.
Substances to be tested are dissolved in various concentrations in dimethyl sulphoxide and incubated for 15 min with human thrombin (0.06 nmol/l dissolved in 50 mmol/l of Tris buffer [C,C,C-tris(hydroxymethyl)aminomethane], 100 mmol/l of sodium chloride, 0.1% BSA [bovine serum albumin], pH 7.4) at 22° C. The substrate (5 μmol/l Boc-Asp(OBzl)-Pro-Arg-AMC from Bachem) is then added. After 30 min of incubation, the sample is excited at a wavelength of 360 nm and the emission is measured at 460 nm. The measured emissions of the test mixtures with test substance are compared to the control mixtures without test substance (only dimethyl sulphoxide instead of test substance in dimethyl sulphoxide) and IC50 values are calculated from the concentration/activity relationships. Representative activity data from this test are given in Table 1 below (in some cases as means of individual determinations): […]

Row | Compound | IC50 (thrombin [1]) [µM] | IC50 (thrombin [2]) [µM]
1 | COc1cc(C(=O)N2CCCC2(C)C(=O)N2CC(F)C2)cc2nc(NCc3cc(Cl)ccn3)oc12 (single isomer, unassigned) [Example 17, (2-{[(4-Chloropyridin-2-yl)methyl]amino}-7-methoxy-1,3-benzoxazol-5-yl){2-[(3-fluoroazetidin-1-yl)carbonyl]-2-methylpyrrolidin-1-yl}methanone] | 0.052 | 0.033
2 | COc1cc(C(=O)N2CCCC2(C)C(=O)N2CCOCC2)cc2nc(NCc3cc(Cl)ccn3)oc12 (single isomer, unassigned) [Example 18, (2-{[(4-Chloropyridin-2-yl)methyl]amino}-7-methoxy-1,3-benzoxazol-5-yl) [2-methyl-2-(morpholin-4-ylcarbonyl)pyrrolidin-1-yl]methanone] | 0.027 | 0.017
3 | COc1cc(C(=O)N2CC(C)OCC2(C)CO)cc2nc(NCc3cc(Cl)ccn3)oc12 (single isomer, unassigned) [Example 19, (2-{[(4-Chloropyridin-2-yl)methyl]amino}-7-methoxy-1,3-benzoxazol-5-yl) [5-(hydroxymethyl)-2,5-dimethylmorpholin-4-yl]methanone] | 0.053 | 0.034
4 | COc1cc(C(=O)N2CC(C)OCC2(C)CO)cc2nc(NCc3cc(Cl)ccn3)oc12 (single isomer, unassigned) [Example 20, (2-{[(4-Chloropyridin-2-yl)methyl]amino}-7-methoxy-1,3-benzoxazol-5-yl) [5-(hydroxymethyl)-2,5-dimethylmorpholin-4-yl]methanone] | 0.066 | 0.036
5 | COc1cc(C(=O)N2CC(C)(CC(C)O)OCC2CF)cc2nc(NCc3cc(Cl)ccn3)oc12 (single isomer, unassigned) [Example 23, (2-{[(4-Chloropyridin-2-yl)methyl]amino}-7-methoxy-1,3-benzoxazol-5-yl) [5-(fluoromethyl)-2-(2-hydroxypropyl)-2-methylmorpholin-4-yl]methanone] | 0.0065 | 0.0008
6 | COc1cc(C(=O)N2CC(C)(CCO)OC[C@H]2C)cc2nc(NCc3cc(Cl)ccn3)oc12 (single isomer, unassigned) [Example 24] | 0.012 | 0.0025
7 | COc1cc(C(=O)N2CC(C)(CC(C)O)OC[C@H]2C)cc2nc(NCc3cc(Cl)ccn3)oc12 (single isomer, unassigned) [Example 25] | 0.0068 | 0.001
8 | COc1cc(C(=O)N2CC(C)(CC(C)O)OC[C@H]2C)cc2nc(NC(C)c3cc(Cl)ccn3)oc12 (single isomer, unassigned) [Example 27] | 0.0076 | 0.0021
9 | CC[C@@H]1COC(C)(CCO)CN1C(=O)c1cc(OC)c2oc(NCc3cc(Cl)ccn3)nc2c1 (single isomer, unassigned) [Example 29] | 0.0088 | 0.0019
10 | COCC1COC(C)(CCO)CN1C(=O)c1cc(OC)c2oc(NCc3cc(Cl)ccn3)nc2c1 (single isomer, unassigned) [Example 31] | 0.034 | 0.011
11 | COc1cc(C(=O)N2CC(C)(CCO)OCC2(C)C)cc2nc(NCc3cc(Cl)ccn3)oc12 (single isomer, unassigned) [Example 33, (2-{[(4-Chloropyridin-2-yl)methyl]amino}-7-methoxy-1,3-benzoxazol-5-yl) [2-(2-hydroxyethyl)-2,5,5-trimethylmorpholin-4-yl]methanone] | 0.014 | 0.0072
12 | COc1cc(C(=O)N2CC(C)(CC(C)O)OCC2(C)C)cc2nc(NCc3cc(Cl)ccn3)oc12 (single isomer, unassigned) [Example 35, (2-{[(4-Chloropyridin-2-yl)methyl]amino}-7-methoxy-1,3-benzoxazol-5-yl) [2-(2-hydroxypropyl)-2,5,5-trimethylmorpholin-4-yl]methanone] | 0.071 | 0.005
13 | COc1cc(C(=O)N2CC(C)OCC2C(C)(C)O)cc2nc(NCc3cc(Cl)ccn3)oc12 (single isomer, unassigned) [Example 36, (2-{[(4-Chloropyridin-2-yl)methyl]amino}-7-methoxy-1,3-benzoxazol-5-yl) [5-(2-hydroxypropan-2-yl)-2-methylmorpholin-4-yl]methanone] | 0.057 | 0.039
14 | COc1cc(C(=O)N2CC(C)OCC2C(C)(C)O)cc2nc(NCc3cc(Cl)ccn3)oc12 (single isomer, unassigned) [Example 37, (2-{[(4-Chloropyridin-2-yl)methyl]amino}-7-methoxy-1,3-benzoxazol-5-yl) [5-(2-hydroxypropan-2-yl)-2-methylmorpholin-4-yl]methanone] | 0.044 | 0.037
15 | COc1cc(C(=O)N2CC(C)(C)OCC2(C)CO)cc2nc(NCc3cc(Cl)ccn3)oc12 (single isomer, unassigned) [Example 39, (2-{[(4-Chloropyridin-2-yl)methyl]amino}-7-methoxy-1,3-benzoxazol-5-yl) [5-(hydroxymethyl)-2,2,5-trimethylmorpholin-4-yl]methanone] | 0.04 | 0.011
16 | COc1cc(C(=O)N2CC(C)(C)OCC2(C)CO)cc2nc(NCc3cc(Cl)ccn3)oc12 (single isomer, unassigned) [Example 40, (2-{[(4-Chloropyridin-2-yl)methyl]amino}-7-methoxy-1,3-benzoxazol-5-yl) [5-(hydroxymethyl)-2,2,5-trimethylmorpholin-4-yl]methanone] | 0.033 | 0.018
17 | COc1cc(C(=O)N2CC(C)(C)OCC2CF)cc2nc(NCc3cc(Cl)ccn3)oc12 (single isomer, unassigned) [Example 43, (2-{[(4-Chloropyridin-2-yl)methyl]amino}-7-methoxy-1,3-benzoxazol-5-yl) [5-(fluoromethyl)-2,2-dimethylmorpholin-4-yl]methanone] | 0.017 | 0.018
18 | COc1cc(C(=O)N2CC(C)OCC2(C)C)cc2nc(NCc3cc(Cl)ccn3)oc12 (single isomer, unassigned) [Example 45, (2-{[(4-Chloropyridin-2-yl)methyl]amino}-7-methoxy-1,3-benzoxazol-5-yl)(2,5,5-trimethylmorpholin-4-yl)methanone] | 0.041 | 0.024
19 | COc1cc(C(=O)N2CC(C)OCC2C2CC(O)C2)cc2nc(NCc3cc(Cl)ccn3)oc12 (single isomer, unassigned) [Example 47, (2-{[(4-Chloropyridin-2-yl)methyl]amino}-7-methoxy-1,3-benzoxazol-5-yl) [5-(3-hydroxycyclobutyl)-2-methylmorpholin-4-yl]methanone] | 0.024 | 0.011
20 | COc1cc(C(=O)N2CC(C)OCC2C2CC(O)C2)cc2nc(NCc3cc(Cl)ccn3)oc12 (single isomer, unassigned) [Example 48, (2-{[(4-Chloropyridin-2-yl)methyl]amino}-7-methoxy-1,3-benzoxazol-5-yl) [5-(3-hydroxycyclobutyl)-2-methylmorpholin-4-yl]methanone] | 0.016 | 0.011
21 | COc1cc(C(=O)N2CC(C)OCC2C2CC(O)C2)cc2nc(NCc3cc(Cl)ccn3)oc12 (single isomer, unassigned) [Example 49, (2-{[(4-Chloropyridin-2-yl)methyl]amino}-7-methoxy-1,3-benzoxazol-5-yl) [5-(3-hydroxycyclobutyl)-2-methylmorpholin-4-yl]methanone] | 0.053 | 0.024
22 | COc1cc(C(=O)N2CC(C)OCC2C2CC(O)C2)cc2nc(NCc3cc(Cl)ccn3)oc12 (single isomer, unassigned) [Example 50, (2-{[(4-Chloropyridin-2-yl)methyl]amino}-7-methoxy-1,3-benzoxazol-5-yl) [5-(3-hydroxycyclobutyl)-2-methylmorpholin-4-yl]methanone] | 0.028 | 0.012
23 | COc1cc(C(=O)N2CC(C)OCC2C2CC(O)C2)cc2nc(NCc3cc(Cl)ccn3)oc12 (single isomer, unassigned) [Example 51, (2-{[(4-Chloropyridin-2-yl)methyl]amino}-7-methoxy-1,3-benzoxazol-5-yl) [5-(3-hydroxycyclobutyl)-2-methylmorpholin-4-yl]methanone] | 0.017 | 0.008
24 | COc1cc(C(=O)N2CC(C)OCC2C2CC(O)C2)cc2nc(NCc3cc(Cl)ccn3)oc12 (single isomer, unassigned) [Example 52, (2-{[(4-Chloropyridin-2-yl)methyl]amino}-7-methoxy-1,3-benzoxazol-5-yl) [5-(3-hydroxycyclobutyl)-2-methylmorpholin-4-yl]methanone] | 0.034 | 0.028
